Like-named read-outs stand apart in the source and are kept apart here.
Tests used:
CD1 mice = tested on: CD1 mice; design: method as in ref 37 = [37]; 37 OECD Guidelines for the Testing of Chemicals 425: Acute Oral Toxicity—Up-and-Down-Procedure (UDP). 2008.; conditions: acute toxicity; cited from earlier work
[1] = Plasma protein binding assay (ultrafiltration); format: in vitro ADME; conditions: Wistar, rat; for fraction unbound at 4 h, 1 μg/mL / fraction unbound at 4 h, 5 μg/mL / fraction unbound at 4 h, 10 μg/mL / fraction unbound at 4 h, 20 μg/mL: ultrafiltration, 37°C
Method: The resulting samples were incubated for 4 h at 37°C. After incubation, a 100 μL aliquot was removed to analyze the total concentration, and the remaining 500 μL was transferred to a 10 kD cut-off ultrafiltration device (Millipore Corporation, USA), which was centrifuged at 2,000 g for 2 h at 37°C. A 100 μL aliquot of centrifuged plasma was analyzed for the free drug concentration using the RP-HPLC method. The amount of the test compound in the ultrafiltrate was determined by interpolating the main areas of the samples on standard curves containing known amounts of C2. The percentage of protein binding was calculated using the following formula: Protein binding ratio (%) = […].

Log P = format: physicochemical; conditions: method not given
[2] = Stability of C2 in rat plasma samples; format: in vitro ADME; conditions: for Difference respect the nominal concentration (%): rat plasma deproteinized samples
Method: The stability of C2 in plasma was evaluated using the QC samples at two concentrations by triplicate ([…]); these samples were stored at 25°C for 12, 24 and 36 h (short-term stability) and subjected to three freeze-thaw cycles (–20°C to 25°C). The post-preparative storage was evaluated by analyzing the ready-to-inject samples that had been refrigerated 4°C for 12, 24 and 36 h. The concentration of C2 after each storage period was related to the initial concentration of freshly prepared and immediately processed samples [40, 41].

[3] = read-out: % Bound fraction of C2 in rat plasma ± SD (converted)
[4] = read-out: % Unbound fraction of C2 in rat plasma ± SD

For O=C(O)CCCC(=O)Nc1ccc(O)c(C(=O)O)c1 [C2, 5-[(4-carboxybutanoyl)amino]-2-hydroxybenzoic acid], the LD50 (CD1 mice) is given as > 2000 mg/kg, the fraction unbound at 4 h, 1 μg/mL [1, 3] is given as 0.921 and the fraction unbound at 4 h, 1 μg/mL [1, 4] is given as 0.921 ± 0.023. It also gave a fraction unbound at 4 h, 5 μg/mL [1, 3] of 0.925, a fraction unbound at 4 h, 5 μg/mL [1, 4] of 0.925 ± 0.018 and a fraction unbound at 4 h, 10 μg/mL [1, 3] of 0.919. The fraction unbound at 4 h, 10 μg/mL [1, 4] was 0.919 ± 0.007, the fraction unbound at 4 h, 20 μg/mL [1, 3] was 0.898 and the fraction unbound at 4 h, 20 μg/mL [1, 4] was 0.898 ± 0.008. For the same compound, the fraction unbound at 4 h ([1]; concentrations of 1 to 20 μg/mL, read-out: unbound fraction) was 0.898 to 0.925, the fraction unbound at 4 h ([1]; summary in discussion, read-out: protein binding (converted)) was 0.9 and the logP (Log P) was 1.3. The “Difference respect the nominal concentration (%)” value ([2]; Refrigeration (4°C), 12 h, 1 μg/mL) was 0.8%, the “Difference respect the nominal concentration (%)” value ([2]; Refrigeration (4°C), 12 h, 2.5 μg/mL) was 1.5% and the “Difference respect the nominal concentration (%)” value ([2]; Refrigeration (4°C), 12 h, 25 μg/mL) was 0.1%. For the same compound, the “Difference respect the nominal concentration (%)” value ([2]; Refrigeration (4°C), 12 h, 100 μg/mL) was 0.5%, the “Difference respect the nominal concentration (%)” value ([2]; Refrigeration (4°C), 24 h, 1 μg/mL) was 2.2% and the “Difference respect the nominal concentration (%)” value ([2]; Refrigeration (4°C), 24 h, 2.5 μg/mL) was 2.6%. The “Difference respect the nominal concentration (%)” value ([2]; Refrigeration (4°C), 24 h, 25 μg/mL) was 3.1%, the “Difference respect the nominal concentration (%)” value ([2]; Refrigeration (4°C), 24 h, 100 μg/mL) was 0.4% and the “Difference respect the nominal concentration (%)” value ([2]; Refrigeration (4°C), 36 h, 1 μg/mL) was 5.3%. The “Difference respect the nominal concentration (%)” value ([2]; Refrigeration (4°C), 36 h, 2.5 μg/mL) was 2.9%, the “Difference respect the nominal concentration (%)” value ([2]; Refrigeration (4°C), 36 h, 25 μg/mL) was 4.3% and the “Difference respect the nominal concentration (%)” value ([2]; Refrigeration (4°C), 36 h, 100 μg/mL) was 0.6%. For the same compound, the “Difference respect the nominal concentration (%)” value ([2]; Room Temperature (25°C), 12 h, 1 μg/mL) was 1.4%, the “Difference respect the nominal concentration (%)” value ([2]; Room Temperature (25°C), 12 h, 2.5 μg/mL) was 1.0% and the “Difference respect the nominal concentration (%)” value ([2]; Room Temperature (25°C), 12 h, 25 μg/mL) was 0.3%. For the same compound, the “Difference respect the nominal concentration (%)” value ([2]; Room Temperature (25°C), 12 h, 100 μg/mL) was 0.3%, the “Difference respect the nominal concentration (%)” value ([2]; Room Temperature (25°C), 24 h, 1 μg/mL) was 2.1% and the “Difference respect the nominal concentration (%)” value ([2]; Room Temperature (25°C), 24 h, 2.5 μg/mL) was 2.3%. For the same compound, the “Difference respect the nominal concentration (%)” value ([2]; Room Temperature (25°C), 24 h, 25 μg/mL) was 2.9%, the “Difference respect the nominal concentration (%)” value ([2]; Room Temperature (25°C), 24 h, 100 μg/mL) was 0.7% and the “Difference respect the nominal concentration (%)” value ([2]; Room Temperature (25°C), 36 h, 1 μg/mL) was 5.8%. The “Difference respect the nominal concentration (%)” value ([2]; Room Temperature (25°C), 36 h, 2.5 μg/mL) was 2.6%, the “Difference respect the nominal concentration (%)” value ([2]; Room Temperature (25°C), 36 h, 25 μg/mL) was 3.7% and the “Difference respect the nominal concentration (%)” value ([2]; Room Temperature (25°C), 36 h, 100 μg/mL) was 1.7%. For the same compound, the “Difference respect the nominal concentration (%)” value ([2]; freeze–thaw (–20 to 25°C), Cycle 2 (24 h), 1 μg/mL) was 2.7%, the “Difference respect the nominal concentration (%)” value ([2]; freeze–thaw (–20 to 25°C), Cycle 2 (24 h), 2.5 μg/mL) was 2.9% and the “Difference respect the nominal concentration (%)” value ([2]; freeze–thaw (–20 to 25°C), Cycle 2 (24 h), 25 μg/mL) was 1.7%. For the same compound, the “Difference respect the nominal concentration (%)” value ([2]; freeze–thaw (–20 to 25°C), Cycle 2 (24 h), 100 μg/mL) was 0.5%, the “Difference respect the nominal concentration (%)” value ([2]; freeze–thaw (–20 to 25°C), Cycle 3 (36 h), 1 μg/mL) was 6.0% and the “Difference respect the nominal concentration (%)” value ([2]; freeze–thaw (–20 to 25°C), Cycle 3 (36 h), 2.5 μg/mL) was 5.1%. The “Difference respect the nominal concentration (%)” value ([2]; freeze–thaw (–20 to 25°C), Cycle 3 (36 h), 25 μg/mL) was 1.7%, the “Difference respect the nominal concentration (%)” value ([2]; freeze–thaw (–20 to 25°C), Cycle 3 (36 h), 100 μg/mL) was 0.6% and the “Difference respect the nominal concentration (%)” value ([2]; freeze–thaw (–20 to 25°C), cycle 1 (12 h), 1 μg/mL) was 1.8%. For the same compound, the “Difference respect the nominal concentration (%)” value ([2]; freeze–thaw (–20 to 25°C), cycle 1 (12 h), 2.5 μg/mL) was 1.8%, the “Difference respect the nominal concentration (%)” value ([2]; freeze–thaw (–20 to 25°C), cycle 1 (12 h), 25 μg/mL) was 2.0% and the “Difference respect the nominal concentration (%)” value ([2]; freeze–thaw (–20 to 25°C), cycle 1 (12 h), 100 μg/mL) was 0.5%. The “stability in rat plasma” value ([2]; stored at 4°C and 25°C for 36 h) was “stable”.
